In PubChem BioAssay (NCI):
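Five compound concentrations were applied to cells in 96-well plates for 48 hours; endpoints were derived by simple linear interpolation of the resulting dose-response curve. At the TGI there is no net growth.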

What was measured:
Assay in all cases: NCI tumour cell line growth inhibition, 48 h
786-0 renal = test system: 786-0 renal
A498 renal = test system: A498 renal
A549 NSCLC = test system: A549 NSCLC
ACHN renal = test system: ACHN renal
BT-549 breast = test system: BT-549 breast
CAKI-1 renal = test system: CAKI-1 renal
CCRF-CEM leukemia = test system: CCRF-CEM leukemia
COLO 205 colon = test system: COLO 205 colon
DLD-1 colon = test system: DLD-1 colon
DMS 114 small cell lung = test system: DMS 114 small cell lung
DMS 273 small cell lung = test system: DMS 273 small cell lung
DU-145 prostate = test system: DU-145 prostate
EKVX NSCLC = test system: EKVX NSCLC
HCC-2998 colon = test system: HCC-2998 colon
HCT-116 colon = test system: HCT-116 colon
HCT-15 colon = test system: HCT-15 colon
HL-60(TB) leukemia = test system: HL-60(TB) leukemia
HOP-62 NSCLC = test system: HOP-62 NSCLC
HOP-92 NSCLC = test system: HOP-92 NSCLC
HS 578T breast = test system: HS 578T breast
HT29 colon = test system: HT29 colon
IGROV1 ovarian = test system: IGROV1 ovarian
K-562 leukemia = test system: K-562 leukemia
KM12 colon = test system: KM12 colon
KM20L2 colon = test system: KM20L2 colon
LOX IMVI melanoma = test system: LOX IMVI melanoma
LXFL 529 NSCLC = test system: LXFL 529 NSCLC
M14 melanoma = test system: M14 melanoma
M19-MEL melanoma = test system: M19-MEL melanoma
MALME-3M melanoma = test system: MALME-3M melanoma
MCF7 breast = test system: MCF7 breast
MDA-MB-231 breast = test system: MDA-MB-231 breast
MDA-MB-435 = test system: MDA-MB-435
MDA-N = test system: MDA-N
MOLT-4 leukemia = test system: MOLT-4 leukemia
NCI-H226 lung = test system: NCI-H226 lung
NCI-H23 lung = test system: NCI-H23 lung
NCI-H460 lung = test system: NCI-H460 lung
NCI-H522 lung = test system: NCI-H522 lung
NCI/ADR-RES ovarian = test system: NCI/ADR-RES ovarian
OVCAR-3 ovarian = test system: OVCAR-3 ovarian
OVCAR-4 ovarian = test system: OVCAR-4 ovarian
OVCAR-5 ovarian = test system: OVCAR-5 ovarian
OVCAR-8 ovarian = test system: OVCAR-8 ovarian
PC-3 prostate = test system: PC-3 prostate
RPMI-8226 leukemia = test system: RPMI-8226 leukemia
RXF 393 renal = test system: RXF 393 renal
RXF-631 renal = test system: RXF-631 renal
SF-268 CNS = test system: SF-268 CNS
SF-295 CNS = test system: SF-295 CNS
SF-539 CNS = test system: SF-539 CNS
SK-MEL-2 melanoma = test system: SK-MEL-2 melanoma
SK-MEL-28 melanoma = test system: SK-MEL-28 melanoma
SK-MEL-5 melanoma = test system: SK-MEL-5 melanoma
SK-OV-3 ovarian = test system: SK-OV-3 ovarian
SN12C renal = test system: SN12C renal
SNB-19 CNS = test system: SNB-19 CNS
SNB-75 CNS = test system: SNB-75 CNS
SNB-78 CNS = test system: SNB-78 CNS
SR leukemia = test system: SR leukemia
SW-620 colon = test system: SW-620 colon
T-47D breast = test system: T-47D breast
TK-10 renal = test system: TK-10 renal
U251 CNS = test system: U251 CNS
UACC-257 melanoma = test system: UACC-257 melanoma
UACC-62 melanoma = test system: UACC-62 melanoma
UO-31 renal = test system: UO-31 renal
XF 498 CNS = test system: XF 498 CNS
HOP-18 NSCLC = test system: HOP-18 NSCLC
P388 leukemia = test system: P388 leukemia
P388/ADR leukemia = test system: P388/ADR leukemia
SN12K1 renal = test system: SN12K1 renal

## Clc1ccc2c(NCCCCCCNc3ccnc4cc(Cl)ccc34)ccnc2c1
786-0 renal
  TGI: 4.15 µM
A498 renal
  TGI: 42.3 µM
A549 NSCLC
  TGI: 20.7 µM
ACHN renal
  TGI: 8.91 µM
BT-549 breast
  TGI: 27.5 µM
CAKI-1 renal
  TGI: 24.1 µM
CCRF-CEM leukemia
  TGI: 7.53 µM
COLO 205 colon
  TGI: 4.62 µM
DLD-1 colon
  TGI: 10.3 µM
DMS 114 small cell lung
  TGI: 3.34 µM
DMS 273 small cell lung
  TGI: 11.7 µM
DU-145 prostate
  TGI: 14.1 µM
EKVX NSCLC
  TGI: 25.9 µM
HCC-2998 colon
  TGI: 3.32 µM
HCT-116 colon
  TGI: 3.85 µM
HCT-15 colon
  TGI: 8.08 µM
HL-60(TB) leukemia
  TGI: 4.7 µM
HOP-62 NSCLC
  TGI: 13.8 µM
HOP-92 NSCLC
  TGI: 5.8 µM
HS 578T breast
  TGI: > 48.8 µM
HT29 colon
  TGI: 4.44 µM
IGROV1 ovarian
  TGI: 14.5 µM
K-562 leukemia
  TGI: 4.98 µM
KM12 colon
  TGI: 7.88 µM
KM20L2 colon
  TGI: 4.39 µM
LOX IMVI melanoma
  TGI: 3.35 µM
LXFL 529 NSCLC
  TGI: 7.3 µM
M14 melanoma
  TGI: 3.51 µM
M19-MEL melanoma
  TGI: 8.83 µM
MALME-3M melanoma
  TGI: 32.6 µM
MCF7 breast
  TGI: 7.27 µM
MDA-MB-231 breast
  TGI: 10.2 µM
MDA-MB-435
  TGI: 12.5 µM
MDA-N
  TGI: 8.86 µM
MOLT-4 leukemia
  TGI: 8.09 µM
NCI-H226 lung
  TGI: 25.3 µM
NCI-H23 lung
  TGI: 31.5 µM
NCI-H460 lung
  TGI: 6.3 µM
NCI-H522 lung
  TGI: 3.19 µM
NCI/ADR-RES ovarian
  TGI: 27.9 µM
OVCAR-3 ovarian
  TGI: 3.77 µM
OVCAR-4 ovarian
  TGI: 5.93 µM
OVCAR-5 ovarian
  TGI: 17.9 µM
OVCAR-8 ovarian
  TGI: 4.9 µM
PC-3 prostate
  TGI: 18.1 µM
RPMI-8226 leukemia
  TGI: 6.53 µM
RXF 393 renal
  TGI: 6.35 µM
RXF-631 renal
  TGI: 6.02 µM
SF-268 CNS
  TGI: 24.8 µM
SF-295 CNS
  TGI: 5.56 µM
SF-539 CNS
  TGI: 3.6 µM
SK-MEL-2 melanoma
  TGI: 12.7 µM
SK-MEL-28 melanoma
  TGI: 9.78 µM
SK-MEL-5 melanoma
  TGI: 10.9 µM
SK-OV-3 ovarian
  TGI: 17.5 µM
SN12C renal
  TGI: 16.6 µM
SNB-19 CNS
  TGI: 13.5 µM
SNB-75 CNS
  TGI: 8.61 µM
SNB-78 CNS
  TGI: 3.87 µM
SR leukemia
  TGI: 19.3 µM
SW-620 colon
  TGI: 3.78 µM
T-47D breast
  TGI: 5.42 µM
TK-10 renal
  TGI: 18.2 µM
U251 CNS
  TGI: 5.82 µM
UACC-257 melanoma
  TGI: 14.6 µM
UACC-62 melanoma
  TGI: 8.66 µM
UO-31 renal
  TGI: 10.6 µM
XF 498 CNS
  TGI: 2.96 µM

## COC1(OC)C2(Cl)C3=CCCC=C3C1(Cl)C(Cl)=C2Cl
786-0 renal
  TGI: > 100 µM
A549 NSCLC
  TGI: > 100 µM
ACHN renal
  TGI: > 100 µM
CAKI-1 renal
  TGI: 84.2 µM
CCRF-CEM leukemia
  TGI: 42.4 µM
COLO 205 colon
  TGI: 37.7 µM
DLD-1 colon
  TGI: > 100 µM
DMS 114 small cell lung
  TGI: 49.9 µM
DMS 273 small cell lung
  TGI: 39.8 µM
EKVX NSCLC
  TGI: 71.5 µM
HCC-2998 colon
  TGI: > 100 µM
HCT-116 colon
  TGI: 43.9 µM
HCT-15 colon
  TGI: > 100 µM
HL-60(TB) leukemia
  TGI: 33.2 µM
HOP-62 NSCLC
  TGI: 71.1 µM
HOP-92 NSCLC
  TGI: 70.1 µM
HT29 colon
  TGI: 84.3 µM
IGROV1 ovarian
  TGI: > 100 µM
KM12 colon
  TGI: > 100 µM
KM20L2 colon
  TGI: 60.4 µM
LOX IMVI melanoma
  TGI: 30.2 µM
LXFL 529 NSCLC
  TGI: > 100 µM
M14 melanoma
  TGI: 31.4 µM
M19-MEL melanoma
  TGI: 47.4 µM
MALME-3M melanoma
  TGI: 49.2 µM
MOLT-4 leukemia
  TGI: 76.9 µM
NCI-H226 lung
  TGI: 82.4 µM
NCI-H23 lung
  TGI: 62.2 µM
NCI-H460 lung
  TGI: > 100 µM
NCI-H522 lung
  TGI: 33 µM
OVCAR-3 ovarian
  TGI: 43.8 µM
OVCAR-4 ovarian
  TGI: > 100 µM
OVCAR-5 ovarian
  TGI: 83.9 µM
OVCAR-8 ovarian
  TGI: > 100 µM
RPMI-8226 leukemia
  TGI: 34 µM
RXF 393 renal
  TGI: 47.8 µM
RXF-631 renal
  TGI: 30.3 µM
SF-268 CNS
  TGI: > 100 µM
SF-295 CNS
  TGI: 74.2 µM
SF-539 CNS
  TGI: > 100 µM
SK-MEL-2 melanoma
  TGI: 36 µM
SK-MEL-28 melanoma
  TGI: > 100 µM
SK-MEL-5 melanoma
  TGI: 29.2 µM
SK-OV-3 ovarian
  TGI: 72.6 µM
SN12C renal
  TGI: > 100 µM
SNB-19 CNS
  TGI: > 100 µM
SNB-75 CNS
  TGI: > 100 µM
SNB-78 CNS
  TGI: > 100 µM
SR leukemia
  TGI: 53.5 µM
SW-620 colon
  TGI: 36.9 µM
TK-10 renal
  TGI: > 100 µM
U251 CNS
  TGI: 82.1 µM
UACC-257 melanoma
  TGI: 75.1 µM
UACC-62 melanoma
  TGI: > 100 µM
UO-31 renal
  TGI: 69 µM
XF 498 CNS
  TGI: 50.2 µM

## C=CCC(O[Si](C)(C)C(C)(C)C)c1cc(O[Si](C)(C)C(C)(C)C)ccc1OC (centres undefined)
A498 renal
  TGI: > 100 µM
A549 NSCLC
  TGI: > 100 µM
CAKI-1 renal
  TGI: > 100 µM
CCRF-CEM leukemia
  TGI: > 100 µM
COLO 205 colon
  TGI: > 100 µM
DLD-1 colon
  TGI: > 100 µM
DMS 114 small cell lung
  TGI: > 100 µM
DMS 273 small cell lung
  TGI: > 100 µM
EKVX NSCLC
  TGI: > 100 µM
HCC-2998 colon
  TGI: > 100 µM
HCT-116 colon
  TGI: > 100 µM
HCT-15 colon
  TGI: > 100 µM
HL-60(TB) leukemia
  TGI: > 100 µM
HOP-18 NSCLC
  TGI: > 100 µM
HOP-62 NSCLC
  TGI: > 100 µM
HOP-92 NSCLC
  TGI: 86.6 µM
HT29 colon
  TGI: > 100 µM
IGROV1 ovarian
  TGI: > 100 µM
K-562 leukemia
  TGI: > 100 µM
KM12 colon
  TGI: > 100 µM
KM20L2 colon
  TGI: > 100 µM
LOX IMVI melanoma
  TGI: > 100 µM
MALME-3M melanoma
  TGI: > 100 µM
MCF7 breast
  TGI: > 100 µM
MOLT-4 leukemia
  TGI: > 100 µM
NCI-H226 lung
  TGI: > 100 µM
NCI-H23 lung
  TGI: > 100 µM
NCI-H460 lung
  TGI: > 100 µM
NCI/ADR-RES ovarian
  TGI: > 100 µM
OVCAR-3 ovarian
  TGI: > 100 µM
OVCAR-4 ovarian
  TGI: > 100 µM
OVCAR-5 ovarian
  TGI: > 100 µM
OVCAR-8 ovarian
  TGI: > 100 µM
P388 leukemia
  TGI: > 100 µM
P388/ADR leukemia
  TGI: > 100 µM
RPMI-8226 leukemia
  TGI: > 100 µM
RXF 393 renal
  TGI: > 100 µM
SF-268 CNS
  TGI: > 100 µM
SF-295 CNS
  TGI: > 100 µM
SF-539 CNS
  TGI: > 100 µM
SK-MEL-2 melanoma
  TGI: > 100 µM
SK-MEL-28 melanoma
  TGI: > 100 µM
SK-MEL-5 melanoma
  TGI: > 100 µM
SK-OV-3 ovarian
  TGI: > 96.4 µM
SN12C renal
  TGI: > 100 µM
SN12K1 renal
  TGI: > 100 µM
SNB-19 CNS
  TGI: > 100 µM
SNB-75 CNS
  TGI: > 100 µM
SNB-78 CNS
  TGI: > 100 µM
SW-620 colon
  TGI: > 100 µM
U251 CNS
  TGI: > 100 µM
UACC-257 melanoma
  TGI: > 100 µM
UACC-62 melanoma
  TGI: > 100 µM
UO-31 renal
  TGI: > 100 µM
XF 498 CNS
  TGI: > 100 µM
